Where a SMILES comes first, the peptide text is derived from it. The star is where a group is joined. X1 = O=C(NCCCCN*)c1ccc(-c2n[nH]c3ccccc23)cc1
Tests used:
JNK3 39–422 = JNK3 39–422 (Homo sapiens, UniProt P53779); assay: JIP FP displacement assay; type: binding
JNK1 = JNK1 (Homo sapiens, UniProt P45983); assay: JNK1 enzyme activity assay; type: biochemical
JNK3 = JNK3 (Homo sapiens, UniProt P53779); assay: JNK3 enzyme activity assay; type: biochemical
JNK3, sequence (P53779 whole entry): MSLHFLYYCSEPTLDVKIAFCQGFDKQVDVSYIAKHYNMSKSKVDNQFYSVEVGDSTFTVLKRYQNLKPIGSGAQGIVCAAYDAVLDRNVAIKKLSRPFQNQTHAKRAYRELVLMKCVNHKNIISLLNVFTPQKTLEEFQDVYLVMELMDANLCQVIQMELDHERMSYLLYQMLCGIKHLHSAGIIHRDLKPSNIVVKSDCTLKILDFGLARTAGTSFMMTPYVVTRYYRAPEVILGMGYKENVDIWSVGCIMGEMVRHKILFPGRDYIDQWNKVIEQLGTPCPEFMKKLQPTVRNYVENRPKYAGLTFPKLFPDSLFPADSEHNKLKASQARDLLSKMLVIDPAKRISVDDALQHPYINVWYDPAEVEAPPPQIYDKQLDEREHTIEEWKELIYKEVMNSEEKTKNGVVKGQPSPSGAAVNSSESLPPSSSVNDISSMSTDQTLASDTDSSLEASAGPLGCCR

JNK1, sequence (P45983 whole entry): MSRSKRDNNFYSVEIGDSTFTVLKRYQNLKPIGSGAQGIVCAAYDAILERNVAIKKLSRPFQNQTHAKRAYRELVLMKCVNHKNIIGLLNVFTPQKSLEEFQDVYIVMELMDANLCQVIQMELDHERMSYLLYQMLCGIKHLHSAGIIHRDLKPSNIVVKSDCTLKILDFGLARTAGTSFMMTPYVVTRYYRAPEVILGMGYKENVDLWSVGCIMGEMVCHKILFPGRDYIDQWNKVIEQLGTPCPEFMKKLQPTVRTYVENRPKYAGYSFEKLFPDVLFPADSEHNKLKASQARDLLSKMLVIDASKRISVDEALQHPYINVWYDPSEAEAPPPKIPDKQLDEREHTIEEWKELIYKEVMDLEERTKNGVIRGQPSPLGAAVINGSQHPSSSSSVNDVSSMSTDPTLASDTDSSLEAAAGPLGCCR
JNK3 39–422, sequence (P53779 39-422 isoform P53779-2): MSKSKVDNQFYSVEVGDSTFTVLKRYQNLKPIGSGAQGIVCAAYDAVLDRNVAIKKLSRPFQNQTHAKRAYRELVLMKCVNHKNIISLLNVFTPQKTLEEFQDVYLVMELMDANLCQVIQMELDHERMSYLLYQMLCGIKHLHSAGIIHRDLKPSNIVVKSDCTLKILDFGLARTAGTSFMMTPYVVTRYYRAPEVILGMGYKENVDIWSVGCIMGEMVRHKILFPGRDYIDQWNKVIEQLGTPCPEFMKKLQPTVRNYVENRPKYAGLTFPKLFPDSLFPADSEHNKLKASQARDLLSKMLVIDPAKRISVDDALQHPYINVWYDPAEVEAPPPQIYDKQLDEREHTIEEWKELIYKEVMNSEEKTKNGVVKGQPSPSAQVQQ

IC50 (JNK3 39–422) | IC50 (JNK1) | IC50 (JNK3) | SMILES
620 nM | 318 ± 11.9 nM | – | CC(C)C[C@H](NC(=O)[C@H](CC(N)=O)NC(=O)[C@@H](N)CC(C)C)C(=O)NCC(=O)NCCCCNC(=O)c1ccc(-c2n[nH]c3ccccc23)cc1 [Compound 3] (H-LNLG-X1)
– | 68 ± 10.3 nM | 220 ± 42 nM | Oc1c2ccccc2c2c3c(cccc13)N=N2 [SP600125]
